Consider one substance from patent US10781236B2, “Bacteriocin composition and method” (priority 2015, dated 2020).

In one experiment the test system is L. plantarum LMGT 2379. Nature of the experiment: Relative MIC, inhibitory spectrum. Format: cell-based, Lactobacillus plantarum. Conditions: relative to L. lactis IL 1403 = 1.
The test system of a further experiment is L. plantarum LMGT 2357. In words: Relative MIC, inhibitory spectrum. In kind it is cell-based, Lactobacillus plantarum. Conditions: relative to L. lactis IL 1403 = 1.
A further experiment relates to L. plantarum LMGT 2003. Nature of the experiment: Relative MIC, inhibitory spectrum. In kind it is cell-based, Lactobacillus plantarum. To be noted: relative to L. lactis IL 1403 = 1.
The test system of another experiment is L. curvatus LMGT 2371. In words: Relative MIC, inhibitory spectrum. Format: cell-based, Lactobacillus curvatus. To be noted: relative to L. lactis IL 1403 = 1.
Another experiment concerns S. agalactia. In words: Antimicrobial activity against problematic bacteria. Conditions: clinical sources. In kind it is cell-based, Streptococcus agalactia. On the procedure: (§1) To screen for bacteriocin producers with broad inhibition spectra (BIS), Lactococcus lactis, Lactobacillus sakei, Lactobacillus plantarum, Listeria innocua, and Staphylococcus aureus from the food and dairy environment were used as indicators in the first round of screening. The antimicrobial screening was performed using the agar diffusion bioassay as previously described (Holo et al., 1991, J. Bacteriol., 173, p 3879-3887). Briefly, indicator cells from overnight cultures were diluted 100-fold in 5 mL of BHI soft agar and plated out as a lawn on BHI agar plates. Potential bacteriocin producers at volumes of 3 μL were spotted on the indicator lawn and then incubated at appropriate temperatures for 24 h for cell growth and cell inhibition. Inhibition was detected as clear zones around the spotted cells.
(§2) As the antimicrobial activity of garvicin KS is relatively broad, we explored further its potential to kill a larger panel of important pathogens. The list contained 147 problematic or potentially problematic bacteria of species belonging to Listeria, Staphylococcus, Streptococcus and Enterococcus, isolated from food and clinical sources. In this assay, we compared the antimicrobial activity of garvicin KS with that of garvicin ML and nisin, the last one being known as a broad inhibition-spectrum bacteriocin (AIKhatib et al., 2014, PLOS One 9:e102246 doi:10.1371/joumal.pone.0102246). […]

The next experiment relates to L. lactis LMGT 2705. In words: Relative MIC, inhibitory spectrum. In kind it is cell-based, Lactococcus lactis. To be noted: relative to L. lactis IL 1403 = 1.
Experiment [1] has as its system C. tyrobutyricum LMGT 2511. In words: Relative MIC, inhibitory spectrum. Format: cell-based, Clostridium tyrobutyricum. Conditions: relative to L. lactis IL 1403 = 1.
The subject of the next experiment is L. curvatus LMGT 2715. Nature of the experiment: Relative MIC, inhibitory spectrum. Format: cell-based, Lactobacillus curvatus. Conditions: relative to L. lactis IL 1403 = 1.
Experiment [2] deals with 147 problematic or potentially problematic bacteria of Listeria, Staphylococcus, Streptococcus and Enterococcus. In words: Antimicrobial activity against problematic bacteria, whole panel. In kind it is cell-based. Conditions: for number of sensitive strains / number of strains tested: Total. How it is done:
as §1
As the antimicrobial activity of garvicin KS is relatively broad, we explored further its potential to kill a larger panel of important pathogens. The list contained 147 problematic or potentially problematic bacteria of species belonging to Listeria, Staphylococcus, Streptococcus and Enterococcus, isolated from food and clinical sources. In this assay, we compared the antimicrobial activity of garvicin KS with that of garvicin ML and nisin, the last one being known as a broad inhibition-spectrum bacteriocin (AIKhatib et al., 2014, PLOS One 9:e102246 doi:10.1371/joumal.pone.0102246). […] In all cases, garvicin KS was either equal or better than nisin, regardless of whether the isolates were from clinical or food environments, except for the activity toward clinical isolates of S. aureus where nisin appeared marginally better (24/25 for nisin and 23/25 for KS).

The test system of a further experiment is L. innocua LMGT 2785. In words: Relative MIC, inhibitory spectrum. In kind it is cell-based, Listeria innocua. Conditions: relative to L. lactis IL 1403 = 1.
Experiment [3] has as its system L. monocytogenes LMGT 2650. Nature of the experiment: Relative MIC, inhibitory spectrum. Conditions: relative to L. lactis IL 1403 = 1. In kind it is cell-based, Listeria monocytogenes.
The next experiment relates to L. lactis LMGT 2081. Nature of the experiment: Relative MIC, inhibitory spectrum. In kind it is cell-based, Lactococcus lactis. Conditions: relative to L. lactis IL 1403 = 1.
For the next experiment, the system named is L. monocytogenes. Nature of the experiment: Antimicrobial activity against problematic bacteria. Format: cell-based, Listeria monocytogenes. On the procedure: as §1, §2
The subject of the next experiment is E. faecium LMGT 2763. Nature of the experiment: Relative MIC, inhibitory spectrum. To be noted: relative to L. lactis IL 1403 = 1. In kind it is cell-based, Enterococcus faecium.
For experiment [4], the system named is L. monocytogenes LMGT 2604. In words: Relative MIC, inhibitory spectrum. Format: cell-based, Listeria monocytogenes. To be noted: relative to L. lactis IL 1403 = 1.
A further experiment has as its system E. faecalis LMGT 2333. In words: Relative MIC, inhibitory spectrum. Conditions: relative to L. lactis IL 1403 = 1. In kind it is cell-based, Enterococcus faecalis.

garvicin ML: the “Relative MIC value” is on record as 32 in the experiment with L. plantarum LMGT 2379; 64 in the experiment with L. plantarum LMGT 2357; 64 in the experiment with L. plantarum LMGT 2003; 32 in the experiment with L. curvatus LMGT 2371; no more than 0.25 with L. lactis LMGT 2705; 32 in [1]. The “Relative MIC value” in the experiment on L. curvatus LMGT 2715 was 32; with L. innocua LMGT 2785 it was 32; in experiment [3] it was 64; with L. lactis LMGT 2081 it was no more than 0.25; in the experiment with E. faecium LMGT 2763, 32-64; in experiment [4], 32. Also, in the experiment with E. faecalis LMGT 2333, the “Relative MIC value” is given as 64-128. Further, the “number of sensitive strains / number of strains tested” value is on record as 1/1 in the experiment with S. agalactia; 12/34 in experiment [2] (clinical sources); 39/113 in [2] (food sources); 0/4 in the experiment on L. monocytogenes (clinical sources); 0/20 with L. monocytogenes (food sources). Also, in experiment [2] (147 strains, clinical and food), the “portion of the 147 strains killed” value came to 34.6%. For the same substance, in experiment [2] (147 strains, clinical and food), the “strains killed among the 147 strains tested” value was 51 strains.
